Activity calls are given as the source filed them. How the source made its calls: active means viability on the fitted dose curve at most 10% of control; inactive means the rest.
Test system: SYO-1 tumor spheroids, viability % test/control
Assay: Anticancer human tumor SYO-1 cell line growth inhibition;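 further: spheroids exposed to agents for 7 days before viability read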;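 on viability, T/C: 100% = DMSO vehicle control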
Conditions: spheroids with HUVEC and MSC; for IC50: curve of first compound; for viability, T/C: stronger effect = lower value
In short: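 Complex spheroids of malignant cells with endothelial cells and mesenchymal stem cells; agents alone or combined, from near clinical Cmax (or 10 microM if unknown) down in half-log steps, 0.25% DMSO final.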

[1] = second compound 30 pM, first compound 0.00949 µM
[2] = second compound 30 pM, first compound 0.03 µM
[3] = second compound 30 pM, first compound 0.0949 µM
[4] = second compound 30 pM, first compound 0.3 µM
[5] = second compound 30 pM, first compound 0.949 µM
[6] = second compound 30 pM, first compound 3 µM
[7] = second compound 94.9 pM, first compound 0.00949 µM
[8] = second compound 94.9 pM, first compound 0.03 µM
[9] = second compound 94.9 pM, first compound 0.0949 µM
[10] = second compound 94.9 pM, first compound 0.3 µM
[11] = second compound 94.9 pM, first compound 0.949 µM
[12] = second compound 94.9 pM, first compound 3 µM
[13] = second compound 0.0003 µM, first compound 0.00949 µM
[14] = second compound 0.0003 µM, first compound 0.03 µM
[15] = second compound 0.0003 µM, first compound 0.0949 µM
[16] = second compound 0.0003 µM, first compound 0.3 µM
[17] = second compound 0.0003 µM, first compound 0.949 µM
[18] = second compound 0.0003 µM, first compound 3 µM
[19] = second compound 0.000949 µM, first compound 0.00949 µM
[20] = second compound 0.000949 µM, first compound 0.03 µM
[21] = second compound 0.000949 µM, first compound 0.0949 µM
[22] = second compound 0.000949 µM, first compound 0.3 µM
[23] = second compound 0.000949 µM, first compound 0.949 µM
[24] = second compound 0.000949 µM, first compound 3 µM
[25] = second compound 0.003 µM, first compound 0.00949 µM
[26] = second compound 0.003 µM, first compound 0.03 µM
[27] = second compound 0.003 µM, first compound 0.0949 µM
[28] = second compound 0.003 µM, first compound 0.3 µM
[29] = second compound 0.003 µM, first compound 0.949 µM
[30] = second compound 0.003 µM, first compound 3 µM

## CNCc1ccc(-c2cc(-c3nc(-c4ccc(S(=O)(=O)C(C)C)cc4)cnc3N)on2)cc1 + COc1cc2c(cc1O)CCNC21CSC2c3c(OC(C)=O)c(C)c4c(c3C(COC1=O)N1C(O)C3Cc5cc(C)c(OC)c(O)c5C(C21)N3C)OCO4
Second compound 30 pM
  IC50: 134 nM
Second compound 94.9 pM
  IC50: 49.1 nM
Second compound 0.0003 µM
  IC50: < 9.49 nM
Second compound 0.000949 µM
  IC50: < 9.49 nM
Second compound 0.003 µM
  IC50: < 9.49 nM
[1]
  viability, T/C: 100%
[2]
  viability, T/C: 94.2%
[3]
  viability, T/C: 70.5%
[4]
  viability, T/C: 2.18%
[5]
  viability, T/C: 0.23%
[6]
  viability, T/C: 0.08%
[7]
  viability, T/C: 98.6%
[8]
  viability, T/C: 84%
[9]
  viability, T/C: 4.65%
[10]
  viability, T/C: 1.24%
[11]
  viability, T/C: 0.12%
[12]
  viability, T/C: 0.07%
[13]
  viability, T/C: 11.1%
[14]
  viability, T/C: 3.94%
[15]
  viability, T/C: 2.02%
[16]
  viability, T/C: 0.82%
[17]
  viability, T/C: 0.12%
[18]
  viability, T/C: 0.09%
[19]
  viability, T/C: 1.37%
[20]
  viability, T/C: 1.54%
[21]
  viability, T/C: 1.43%
[22]
  viability, T/C: 0.42%
[23]
  viability, T/C: 0.09%
[24]
  viability, T/C: 0.1%
[25]
  viability, T/C: 0.12%
[26]
  viability, T/C: 0.12%
[27]
  viability, T/C: 0.1%
[28]
  viability, T/C: 0.11%
[29]
  viability, T/C: 0.19%
[30]
  viability, T/C: 0.18%

## Cc1sc2c(c1C)C(c1ccc(Cl)cc1)=NC(CC(=O)Nc1ccc(O)cc1)c1nnc(C)n1-2 (stereo not given) + COc1cc2c(cc1O)CCNC21CSC2c3c(OC(C)=O)c(C)c4c(c3C(COC1=O)N1C(O)C3Cc5cc(C)c(OC)c(O)c5C(C21)N3C)OCO4
Second compound 30 pM
  IC50: 52.9 nM
Second compound 94.9 pM
  IC50: 43.2 nM
Second compound 0.0003 µM
  IC50: < 9.49 nM
Second compound 0.000949 µM
  IC50: < 9.49 nM
Second compound 0.003 µM
  IC50: < 9.49 nM
[1]
  viability, T/C: 89%
[2]
  viability, T/C: 86.8%
[3]
  viability, T/C: 12.1%
[4]
  viability, T/C: 0.72%
[5]
  viability, T/C: 0.4%
[6]
  viability, T/C: 0.28%
[7]
  viability, T/C: 86.1%
[8]
  viability, T/C: 69%
[9]
  viability, T/C: 8.96%
[10]
  viability, T/C: 0.68%
[11]
  viability, T/C: 0.34%
[12]
  viability, T/C: 0.28%
[13]
  viability, T/C: 6.25%
[14]
  viability, T/C: 2.72%
[15]
  viability, T/C: 0.68%
[16]
  viability, T/C: 0.58%
[17]
  viability, T/C: 0.32%
[18]
  viability, T/C: 6.38%
[19]
  outcome: active
[20]
  viability, T/C: 0.65%
[21]
  viability, T/C: 0.51%
[22]
  viability, T/C: 0.24%
[23]
  viability, T/C: 0.06%
[24]
  viability, T/C: 0.12%
[25]
  viability, T/C: 0.08%
[26]
  viability, T/C: 0.1%
[27]
  viability, T/C: 0.09%
[28]
  viability, T/C: 0.1%
[29]
  viability, T/C: 0.09%
[30]
  viability, T/C: 0.21%

## Cn1ncnc1[C@H]1c2n[nH]c(=O)c3cc(F)cc(c23)N[C@@H]1c1ccc(F)cc1 + COc1cc2c(cc1O)CCNC21CSC2c3c(OC(C)=O)c(C)c4c(c3C(COC1=O)N1C(O)C3Cc5cc(C)c(OC)c(O)c5C(C21)N3C)OCO4
Second compound 30 pM
  IC50: < 9.49 nM
Second compound 94.9 pM
  IC50: < 9.49 nM
Second compound 0.0003 µM
  IC50: < 9.49 nM
Second compound 0.000949 µM
  IC50: < 9.49 nM
Second compound 0.003 µM
  IC50: < 9.49 nM
[1]
  viability, T/C: 40.6%
[2]
  viability, T/C: 8.47%
[3]
  viability, T/C: 3.42%
[4]
  viability, T/C: 2.17%
[5]
  viability, T/C: 1.14%
[6]
  viability, T/C: 1.2%
[7]
  viability, T/C: 9.24%
[8]
  viability, T/C: 3.72%
[9]
  viability, T/C: 2.32%
[10]
  viability, T/C: 1.61%
[11]
  viability, T/C: 1.11%
[12]
  viability, T/C: 1.06%
[13]
  viability, T/C: 1.89%
[14]
  viability, T/C: 1.72%
[15]
  viability, T/C: 1.38%
[16]
  viability, T/C: 1.22%
[17]
  viability, T/C: 1.37%
[18]
  viability, T/C: 0.93%
[19]
  viability, T/C: 0.99%
[20]
  viability, T/C: 0.87%
[21]
  viability, T/C: 0.78%
[22]
  viability, T/C: 0.83%
[23]
  viability, T/C: 0.68%
[24]
  viability, T/C: 0.57%
[25]
  viability, T/C: 0.13%
[26]
  viability, T/C: 0.14%
[27]
  viability, T/C: 0.13%
[28]
  viability, T/C: 0.14%
[29]
  viability, T/C: 0.52%
[30]
  viability, T/C: 0.24%

Reference: PubChem BioAssay AID1845219 (Molecular Pharmacology Branch, DTP, NCI, 2023)
